Broadly, the IC50 is the midpoint of a concentration-inhibition curve.

Format in all cases: cell-based, human
For assay [1], the system named is 16 DLBCL cell lines. As to the kind of experiment: Cell viability assay, panel of 16 DLBCL cell lines. Particulars: 96H, read-out: IC50 range over all DLBCL cell lines. The source says:
The 16 DLBCL cell lines (U2932, OCI-LY-3, NU-DHL-1, OCI-LY-19, DB, SUDHL4, OCILY1, SUDHL5, DOHH2, SUDHL10, HT, RI-1, SU-DHL-6, NUDUL-1, WSU-DLCL-2 and OCI-LY-7) were purchased from the DSMZ (Leibniz-Institut DSMZ—Deutsche Sammlung von Mikroorganismen und Zellkulturen GmbH, Germany). They were maintained in RPMI-1640 (Gibco, Invitrogen), supplemented with 10% fetal bovine serum (PAA laboratory GmbH) for U2932, SUDHL-4, HT, DOHH2, SUDHL-10, RI-1, WSU-DLCL-2 cell lines, 20% FBS OCI-LY3, DB, SUDHL-5, NUDHL-1, SU-DHL-6, NUDUL-1 cell lines. OCI-LY1 and OCI-LY7 were cultured in IMDM (Gibco, Invitrogen), supplemented with 20% fetal bovine serum and OCI-LY19 was cultured in MEM alpha modified (Gibco, Invitrogen), supplemented with 20% fetal bovine serum. […]
DLBCL-derived cell lines were cultured for 4 days in 96-well flat-bottom microtiter plates in RPMI 1640 medium, 10% or 20% FCS (control medium) in the presence of various compounds. The number of viable cells in culture was determined using the CellTiter-Glo Luminescent Cell Viability Assay from Promega, Madison, Wis., USA using a Centro LB 960 luminometer (Berthold Technologies, Bad Wildbad, Germany).
This test is based on quantitation of the intracellular ATP present, which signals the presence of metabolically active cells. Data are expressed as the mean percentage of six replicates, normalized to the untreated control. […]

The subject of assay [2] is DLBCL-derived cell lines (U2932, DB and OCI-LY3). As to the kind of experiment: Concentration matrix test, synergy matrix (Bliss equation). The following applies: DB cell line, 96 h, combined with Doxorubicin. The protocol:
The DB DLBCL-derived cell lines were treated with increasing concentrations of Ironomycin combined with Doxorubicin for 96 h and cell viability was tested by ATP quantification to obtain the viability matrix. The synergy matrix was calculated as described in Material and Methods (A).
Three DLBCL-derived cell lines were treated with increasing concentrations of Ironomycin combined with Venetoclax for 96 h and cell viability was tested by ATP quantification to obtain the viability matrix. The synergy matrix was calculated as described in Material and Methods. FIG. 8A: U2932 cell line; FIG. 8B: DB cell line; FIG. 8C: OCI-LY3 cell line.
Two DLBCL-derived cell lines were treated with increasing concentrations of Ironomycin combined with Ibrutinib for 96 h and cell viability was tested by ATP quantification to obtain the viability matrix. The synergy matrix was calculated as described in Material and Methods. […]
Two DLBCL-derived cell lines were treated with increasing concentrations of Ironomycin combined with Venetoclax for 96 h and cell viability was tested by ATP quantification to obtain the viability matrix. The synergy matrix was calculated as described in Material and Methods. […]
Three DLBCL-derived cell lines were treated with increasing concentrations of Ironomycin combined with Venetoclax for 96 h and cell viability was tested by ATP quantification to obtain the viability matrix. […]

Assay [3] has as its system DB and OCI-LY3 DLBCL derived cell-line. As to the kind of experiment: phospho-RPA2 T21 foci immunofluorescence. The following applies: 50 nM, 24H. On the procedure:
DB and OCI-LY3 DLBCL derived cell-line was treated with 50 nM Ironomycin during 24H. Immunofluoresence staining for foci of phospho-RPA2 T21, S phase (EdU integration) and DAPI was performed in DLBCL cells. (Magnification x63). Scale bar: 10 μm.
(§1) At least 300 cells were counted for each group. Statistical difference was tested using a Fisher's exact test. * P<0.05, ** P<0.01, *** P<0.001, **** P<0.0001. NS: non-significant.

Assay [4] relates to DB and OCI-LY3 cells. As to the kind of experiment: DNA fiber assay (replication fork progression). The protocol: DB and OCI-LY3 cells were labeled with IdU, treated with vehicle, gemcitabine (10 μM) or Ironomycin (100 μM) and labeled with CIdU (30 minutes each), and then harvested for DNA fiber assay (A and B).
DB cells were pretreated or not by deoxynucleotides for 30 minutes, labeled with IdU, treated with vehicle, gemcitabine (10 μM) or Ironomycin (100 μM) and labeled with CIdU (30 minutes each), and then harvested for DNA fiber assay (C and D).
Boxplot represent median±interquartile ranges and dots represent outliers of track length (expressed in μm). Results represent at least 200 track measurements. * P<0.05, **** P<0.0001, NS: non-significant, Mann-Whitney test.
Eukaryotic cells contain numerous iron-requiring proteins such as iron-sulfur (Fe—S) cluster proteins, hemoproteins and ribonucleotide reductases that play key roles in DNA replication and require iron as a cofactor (Zhang, 2014). The inventors next monitored the effect of ironomycin on fork progression in DLBCL cells using DNA fiber analysis. To this end, DLBCL cell lines were pulse labeled with 10 μM IdU and 100 μM CIdU and the length of CIdU tracks was measured to estimate the distance covered by individual forks during the pulse. […] Gemcitabine was used as a positive control. […]

For assay [5], the system named is DLBCL cells. As to the kind of experiment: DNA double strand breaks, Phospho-H2A.X (Ser139) foci and western blot. The following applies: 24 hours. On the procedure: DSB induction was monitored by Phospho-H2A·X (Ser139) staining and nuclei were stained with DAPI. Foci were visualized by fluorescence microscopy. Original magnification X 63. Scale bar: 10 μm.
Cells were treated with iron chelators (80 μM Deferasirox), and Ironomycin (20 nM and 100 nM) during 24H. Protein levels of Phospho-H2A·X (S139) were analyzed by western blot (D)
as §1

`C#CCN[C@@H]1C=C[C@]2(O[C@H]([C@@H](CC)C(=O)[C@@H](C)[C@@H](O)[C@H](C)[C@@H]3O[C@@H]([C@@H](CC)C(=O)O)CC[C@@H]3C)[C@@H](C)C[C@H]2C)O[C@@]12CC[C@@](C)([C@H]1CC[C@](O)(CC)[C@H](C)O1)O2` [Ironomycin]: the IC50 in assay [1] lay in the range of 7.2 to 91.5 nM. For the same compound, the “potentiation of doxorubicin toxicity (synergy matrix)” value in assay [2] is recorded as “significantly potentialized the toxicity of doxorubicin”. Moreover, the “phosphorylation of RPA2 on threonine 21 (replication stress)” value in assay [3] is reported as “increased phosphorylation of replication protein A sub-unit 2 (RPA2) on threonine 21”. Besides, the “effect of deoxynucleotide supplementation on replication fork delay” value in assay [4] (DB cells pretreated by deoxynucleotides for 30 minutes) is given as “partially reversed”. Further, the “length of CIdU tracks compared to control cells” value in assay [4] (P<0.0001) is listed as “significantly shorter”. The “DNA double strand breaks (γH2AX foci, H2AX phosphorylation)” value in assay [5] is “induced DNA double strand breaks”.

(Values after patent US20230220480A1, “IRON-SCORE AND IN VITRO METHOD FOR IDENTIFYING HIGH RISK DLBCL SUBJECTS AND THERAPEUTIC USES AND METHODS” (CENTRE NATIONAL DE LA RECHERCHE SCIENTIFIQUE (CNRS), priority 2019, published 2023).)
